Laboratory results taken from US4016280A, “4,4-Diarylpiperidine compositions and use” (Byk Gulden Lomberg Chemische Fabrik GmbH, priority 1969, dated 1977).
Where two headings read alike, the source gives them in different places.

Tests used:
Neuroleptic effects = details: in vivo
From the text: (§1) These compounds are useful as neuroleptics.

[1] = Potentiation of the effect of hexobarbital; details: in vivo
From the text: as §1

albino mouse [2] = assay: Antagonism in the albino mouse of reserpine (preventive and curative ptosis/sedation); format: in vivo; details: reserpine 2mg/kg sc.; for ED50: Mus musculus, po
Method: (§2) Antagonism in the albino mouse
(§3) Com- Preventive Curative catalepsy
(§4) of tion dation p.o.) i.p.)
(§5) *drugs administered per os
(§6) **administered in doses from 50 to 300 mg/kg

albino mouse [3] = assay: Acute toxicity in the albino mouse; details: mouse, in vivo
Method: (§7) As stated above, the compounds of formula I have advantageous central nervous system stimulating properties. Side-effects, as they are encountered on administration of amphetamine-type stimulants, are produced to a much lesser extent by the 4,4-diphenylpiperidine compounds, if at all. […] The tests were carried out according to known and accepted pharmacological standard test methods.
(§8) a Acute toxicity 150 mg./kg. 100 mg./kg.

albino mouse [4] = assay: Antagonism in the albino mouse of perphenazine catalepsy; format: in vivo; details: for ED50: Mus musculus, po, perphenazine 10 mg/kg p.o., drug per os, Examples 28, 29: 50 to 300 mg/kg; for Anticataleptic action (in words): mouse, in vivo
Method: as §2, §3, §4, §5, §6

albino mouse [5] = assay: Antagonism in the albino mouse of tremorine tremor; format: in vivo; details: tremorine 15 mg/kg i.p., drug per os, Examples 28, 29: 50 to 300 mg/kg
Method: as §2, §4, §5, §6

albino mouse [6] = assay: General behaviour of the albino mouse with different doses; format: in vivo; details: for Vigilance of the animal (in words) / Locomotory activity / Restlessness Stereotype / Salivation / Vigilance: albino mouse; for Locomotory activity / Restlessness Stereotype / Salivation / Vigilance: different doses per os, Examples 28, 29: 50 to 300 mg/kg; for Sedation of animals (in words): mouse, in vivo
Method: Acute toxi- General behaviour of the albino
city in the mouse with different doses*
as §5, §6

[7] = Acute toxicity in the albino mouse; details: mouse, in vivo, Table 2
Method: as §7, §8

albino mouse [8] = assay: Saliva secretion; format: in vivo
Method: as §7
No secretion Pronounced

Exophthalmus = details: in vivo
Method: as §7
f Exophthalmus Absent Present

[9] = Increase in blood pressure; format: in vivo; details: rats and dogs
Method: as §7
pressure (rats and increase

Tachyphylaxis = details: in vivo
Method: as §7
g Tachyphylaxis None Pronounced

[10] = Potentiating effect on noradrenaline; details: in vivo
Method: as §7

albino mouse [11] = assay: Locomotory activity (restlessness in movements); format: in vivo; details: albino mouse 5 mg/kg. perorally
Method: as §7

[12] = doses from 50 to 300 mg/kg per os
[13] = 18 h, doses from 50 to 300 mg/kg per os
[14] = 18 h, doses from 50 to 300 mg/kg per os, read-out: Reserpine antagonism, Preventive Sedation ED50, 18 h
[15] = drug per os, Examples 28, 29: 50 to 300 mg/kg
[16] = po, p.o., read-out: Acute toxicity in the albino mouse LD50 p.o.

O=C(CCCN1CCC(c2ccccc2)(c2ccccc2)CC1)c1ccccc1 [Example 29, 1-(3-Benzoylpropyl)-4,4-diphenylpiperidine]
Neuroleptic effects (in words) (Neuroleptic effects): exhibit neuroleptic effects | Effect on hexobarbital (in words) [1]: potentiate the effect of hexobarbital | Reserpine antagonism, Preventive Sedation ED50, 3 h (albino mouse [2]; [12]): .phi. (no effect) | Reserpine antagonism, Preventive ptosis ED50, 3 h (albino mouse [2]; [12]): .phi. (no effect) | Reserpine antagonism, Preventive ptosis ED50, 18 h (albino mouse [2]; [13]): .phi. (no effect) | ED50 (albino mouse [2]; [14]): 100 mg/kg | Reserpine antagonism, Curative Sedation ED50 (albino mouse [2]; [15]): .phi. (no effect) | Reserpine antagonism, Curative ptosis ED50 (albino mouse [2]; [15]): .phi. (no effect) | Acute toxicity (in words) (albino mouse [3]): very low acute toxicity | ED50 (albino mouse [4]): 50 mg/kg | Anticataleptic action (in words) (albino mouse [4]): exhibit anticataleptic action | Tremorine tremor antagonism ED50 (albino mouse [5]): .phi. (no effect) | Vigilance of the animal (in words) (albino mouse [6]): somewhat reduce vigilance | Locomotory activity (albino mouse [6]): - (decrease) | Restlessness Stereotype (albino mouse [6]): .phi. (no effect) | Salivation (albino mouse [6]): .phi. (no effect) | Vigilance (albino mouse [6]): - (decrease) | Sedation of animals (in words) (albino mouse [6]): induce sedation

O=C(CCCN1CCC(c2ccccc2)(c2ccccc2)CC1)c1ccc(F)cc1 [Example 28, 1-[3-(p-Fluorobenzoyl)propyl]-4,4-diphenylpiperidine]
Neuroleptic effects (in words) (Neuroleptic effects): exhibit neuroleptic effects | Effect on hexobarbital (in words) [1]: potentiate the effect of hexobarbital | Reserpine antagonism, Preventive Sedation ED50, 3 h (albino mouse [2]; [12]): .phi. (no effect) | Reserpine antagonism, Preventive ptosis ED50, 3 h (albino mouse [2]; [12]): .phi. (no effect) | Reserpine antagonism, Preventive ptosis ED50, 18 h (albino mouse [2]; [13]): .phi. (no effect) | ED50 (albino mouse [2]; [14]): 300 mg/kg | Reserpine antagonism, Curative Sedation ED50 (albino mouse [2]; [15]): .phi. (no effect) | Reserpine antagonism, Curative ptosis ED50 (albino mouse [2]; [15]): .phi. (no effect) | Acute toxicity (in words) (albino mouse [3]): very low acute toxicity | LD50 [7, 16]: 3800 mg/kg | ED50 (albino mouse [4]): 50 mg/kg | Anticataleptic action (in words) (albino mouse [4]): exhibit anticataleptic action | Tremorine tremor antagonism ED50 (albino mouse [5]): .phi. (no effect) | Vigilance of the animal (in words) (albino mouse [6]): somewhat reduce vigilance | Locomotory activity (albino mouse [6]): - (decrease) | Restlessness Stereotype (albino mouse [6]): .phi. (no effect) | Salivation (albino mouse [6]): .phi. (no effect) | Vigilance (albino mouse [6]): - (decrease) | Sedation of animals (in words) (albino mouse [6]): induce sedation

CC(C)N1CCC(c2ccccc2)(c2ccccc2)CC1 [Example 4, 1-Isopropyl-4,4-diphenylpiperidine]
Saliva secretion (albino mouse [8]): No secretion | Exophthalmus (Exophthalmus): Absent | Increase in blood pressure [9]: Slight increase | Tachyphylaxis (Tachyphylaxis): None | ED50 (albino mouse [2]; drug per os, Examples 28, 29: 50 to 300 mg/kg, read-out: Reserpine antagonism, Curative Sedation ED50): 13 mg/kg | ED50 (albino mouse [2]; drug per os, Examples 28, 29: 50 to 300 mg/kg, read-out: Reserpine antagonism, Curative ptosis ED50): > 50 mg/kg | ED50 (albino mouse [2]; drug per os, read-out: Reserpine antagonism, Preventive Sedation ED50): 3 mg/kg | ED50 (albino mouse [2]; drug per os, read-out: Reserpine antagonism, Preventive ptosis ED50): 16 mg/kg | LD50 ([7]; iv, i.v., read-out: Acute toxicity in the albino mouse LD50 i.v.): 20 mg/kg | LD50 [7, 16]: 150 mg/kg | Potentiating effect on noradrenaline [10]: Present | Locomotory activity (restlessness in movements), increase by (albino mouse [11]): 20% | ED50 (albino mouse [4]): 7 mg/kg | ED50 (albino mouse [5]; Mus musculus, po): 1.5 mg/kg | Locomotory activity (albino mouse [6]): (+) | Restlessness Stereotype (albino mouse [6]): .phi. (no effect) | Salivation (albino mouse [6]): .phi. (no effect) | Vigilance (albino mouse [6]): ++
